Source: patent publication US6417174B1, “Inhibitors of β-lactamases and uses therefor” (Northwestern University, priority 1997, dated 2002)
Read-outs that look alike come from different tables or passages of the source.

Assays:
[1] = tested on: E. coli RYC1000 harboring plasmid pBGAmpC-MHN (AmpC β-lactamase of Enterobacter cloacae); experiment: microbe, parasite or virus in culture; format: cell-based, Escherichia coli; settings: for MIC of inhibitor used alone without ceftazidime: Table 3B; for MIC of ceftazidime plus inhibitor: proportion 4/1, given as CAZ/inhibitor; for MIC of amoxicillin plus inhibitor: Table 4A, EC-AmpCEn, proportion 4/1; for MIC of inhibitor used alone without amoxicillin: Table 4B, ECAmpCEn, not tested above 128 μg/ml, “256” indicates no inhibition of cell growth; as to MIC of ceftazidime plus inhibitor: values in µg/ml
Method: (§1) After incubation, the growth of the cells was visually inspected. The minimum inhibitory concentration (MIC) is the lowest concentration where there no cell growth was observed.
(§2) The following strains were used: Enterobacter cloacae cell line with derepressed β-lactamase production (Ent-Der), and Escherichia coli RYC1000 (araD139 D lacU169 rpsL D rib7 thiA gyrA recA56) cell lines, harboring the plasmid pBGS19 (with no β-lactamase), or the β-lactamase containing plasmids pBGAmpC (AmpC β-lactamase from E. coli; Eco-AmpC), or pBGAmpC-MHN (AmpC β-lactamase from Enterobacter cloacae; Eco-AmpCEnt). […] TEM-10 and TEM-24 differ from TEM-1 due to the following point substitutions: TEM-10 (R164S, E240K); TEM-24 (L102K, L162S, S235T, A237K). TEM-10 and TEM-24 also differ from TEM-1 in being extended spectrum enzymes (i.e., they react with a greater range of substrates than TEM-1). Also tested were clinical isolates of Pseudomonas aeruginosa. All bacterial strains and plasmids are available from Jesus Blazquez and Fernando Baquero, Servicio de Microbiologia, Hospital Ramon y Cajal, National Institute of Health, Madrid, Spain.
(§3) Several ratios, including 1:1, 2:1, 4:1, and 1:3, of β-lactam antibiotic (amoxicillin (AX) or ceftazidime (CAZ)) to boronic acid compound were used in the assays. Tazobactam (TAZO), a clinically used β-lactamase inibitor, was used as a positive control.

[2] = tested on: E. coli RYC1000 harboring plasmid pBGS19 (no β-lactamase); experiment: microbe, parasite or virus in culture; format: cell-based, Escherichia coli; settings: for MIC of ceftazidime plus inhibitor: proportion 4/1; for MIC of inhibitor used alone without ceftazidime: Table 3B; for MIC of inhibitor used alone without amoxicillin: Table 4B, EC, not tested above 128 μg/ml, “256” indicates no inhibition of cell growth
Method: as §1, §2, §3

[3] = tested on: E. coli RYC1000 harboring plasmid pBGTEM-24 (TEM-24 β-lactamase); experiment: microbe, parasite or virus in culture; format: cell-based, Escherichia coli; settings: for MIC of ceftazidime plus inhibitor: proportion 4/1, given as CAZ/inhibitor; for MIC of inhibitor used alone without ceftazidime: Table 3B; as to MIC of ceftazidime plus inhibitor: values in µg/ml
Method: as §1, §2, §3

[4] = tested on: β-lactamase derepressed strain of Enterobacter cloacae (Ent-Der); experiment: microbe, parasite or virus in culture; format: cell-based; settings: for MIC of ceftazidime plus inhibitor: proportion 4/1, given as CAZ/inhibitor; for MIC of inhibitor used alone without ceftazidime: Table 3B; for MIC of amoxicillin plus inhibitor: Table 4A, proportion 4/1; for MIC of amoxicillin plus inhibitor / MIC of inhibitor used alone without amoxicillin: Ent-Der.; for MIC of inhibitor used alone without amoxicillin: Table 4B, not tested above 128 μg/ml, “256” indicates no inhibition of cell growth; as to MIC of ceftazidime plus inhibitor: values in µg/ml
Method: as §1, §2, §3

[5] = tested on: Citrobacter freundii derrepressed (clinical isolate); experiment: Antibacterial activity, wider range of bacteria; format: cell-based; settings: Table 6
Method: (§4) Bacterial cell culture testing was performed and interpreted following the guidelines of the National Committee for Clinical Laboratory Standards (National Committee for Clinical Laboratory Standards. Methods for Dilution Antimicrobial Susceptibility Tests for Bacteria that Grow Aerobically. Approved Standard M7-A3. National Committee for Clinical Laboratory Standards, Villanova, Pa. 1993). After incubation, the growth of the cells was visually inspected. The minimum inhibitory concentration (MIC) is the lowest concentration where there no cell growth was observed.
(§5) All bacterial strains and plasmids are available from Jesus Blazquez and Fernando Baquero, Servicio de Microbiologia, Hospital Ramon y Cajal National Institute of Health, Madrid, Spain.

[6] = tested on: E. coli derrepr. (clinical isolate); experiment: Antibacterial activity, wider range of bacteria; format: cell-based; settings: Table 6
Method: as §4, §5

[7] = tested on: Enterobacter cloacae derrepressed (clinical isolate); experiment: Antibacterial activity, wider range of bacteria; format: cell-based; settings: Table 6
Method: as §4, §5

[8] = tested on: Pseudomonas aeruginosa-1 (clinical isolate); experiment: Antibacterial activity, wider range of bacteria; format: cell-based; settings: Table 6
Method: as §4, §5

[9] = tested on: Ps. aeruginosa-2 (clinical isolate); experiment: Antibacterial activity, wider range of bacteria; format: cell-based, Pseudomonas aeruginosa; settings: Table 6
Method: as §4, §5

[10] = tested on: Ps. aeruginosa-3 (clinical isolate); experiment: Antibacterial activity, wider range of bacteria; format: cell-based, Pseudomonas aeruginosa; settings: Table 6
Method: as §4, §5

[11] = molecular target: AmpC β-lactamase from E. coli (Escherichia coli, UniProt P00811); experiment: biochemical; format: biochemical
AmpC β-lactamase from E. coli, sequence (P00811 20-377): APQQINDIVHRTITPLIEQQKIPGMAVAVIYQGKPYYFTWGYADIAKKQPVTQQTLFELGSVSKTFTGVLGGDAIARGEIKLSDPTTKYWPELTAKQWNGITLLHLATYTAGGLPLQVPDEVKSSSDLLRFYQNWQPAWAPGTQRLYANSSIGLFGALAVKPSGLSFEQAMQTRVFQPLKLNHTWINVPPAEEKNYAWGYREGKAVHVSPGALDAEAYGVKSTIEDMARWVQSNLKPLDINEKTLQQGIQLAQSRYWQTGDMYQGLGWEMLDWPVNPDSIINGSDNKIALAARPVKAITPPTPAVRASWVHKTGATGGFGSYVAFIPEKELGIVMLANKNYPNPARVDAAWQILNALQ

[12] = molecular target: T1, TEM-1 β-lactamase from E. coli (Escherichia coli, UniProt P62593); experiment: Inhibition of TEM-1 β-lactamase, spectrophotometric assay (FAP substrate); format: biochemical
T1 construct: gift: Natalie Strynadka, University of Alberta
T1 sequence (P62593 24-286 limits assumed): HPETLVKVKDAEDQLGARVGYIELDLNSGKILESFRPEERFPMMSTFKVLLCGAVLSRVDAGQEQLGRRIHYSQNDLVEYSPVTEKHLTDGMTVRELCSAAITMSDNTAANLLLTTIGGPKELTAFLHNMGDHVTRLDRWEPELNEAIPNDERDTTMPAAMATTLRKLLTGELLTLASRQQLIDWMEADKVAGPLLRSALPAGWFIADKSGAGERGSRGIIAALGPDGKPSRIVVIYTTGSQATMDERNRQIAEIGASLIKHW

[13] = tested on: E. coli RYC1000 harboring a plasmid coding for a mutant of AmpC from Enterobacter (ECR-AmpCEnM); experiment: microbe, parasite or virus in culture; format: cell-based, Escherichia coli; settings: for MIC of amoxicillin plus inhibitor: Table 4A, ECR-AmpCEnM, proportion 4/1; for MIC of inhibitor used alone without amoxicillin: Table 4B, ECRAmpCEnM, not tested above 128 μg/ml, “256” indicates no inhibition of cell growth
Method: as §1, §2, §3

[14] = tested on: E. coli RYC1000 harboring pBGAmpC-E. coli producing AmpC (ECR-AmpCEc); experiment: microbe, parasite or virus in culture; format: cell-based, Escherichia coli; settings: ECR-AmpCEc; for MIC of amoxicillin plus inhibitor: Table 4A, proportion 4/1; for MIC of inhibitor used alone without amoxicillin: Table 4B, not tested above 128 μg/ml, “256” indicates no inhibition of cell growth
Method: as §1, §2, §3

[15] = tested on: E. coli RYC1000 harboring pBGTEM-1 producing TEM-1 β-lactamase (EC-T1); experiment: microbe, parasite or virus in culture; format: cell-based, Escherichia coli; settings: EC-T1; for MIC of amoxicillin plus inhibitor: Table 4A, proportion 4/1; for MIC of inhibitor used alone without amoxicillin: Table 4B, not tested above 128 μg/ml, “256” indicates no inhibition of cell growth
Method: as §1, §2, §3

[16] = tested on: E. coli RYC1000 harboring pBGTEM-10 producing TEM-10 β-lactamase (EC-T10); experiment: microbe, parasite or virus in culture; format: cell-based, Escherichia coli; settings: EC-T10; for MIC of amoxicillin plus inhibitor: Table 4A, proportion 4/1; for MIC of inhibitor used alone without amoxicillin: Table 4B, not tested above 128 μg/ml, “256” indicates no inhibition of cell growth
Method: as §1, §2, §3

[17] = molecular target: Enterobacter cloacae P99 β-lactamase (Enterobacter cloacae, UniProt P05364); settings: Dryjanski and Pratt, Biochemistry 34, 3561-3568 (1995); cited from earlier work
Enterobacter cloacae P99 β-lactamase, sequence (P05364 21-381): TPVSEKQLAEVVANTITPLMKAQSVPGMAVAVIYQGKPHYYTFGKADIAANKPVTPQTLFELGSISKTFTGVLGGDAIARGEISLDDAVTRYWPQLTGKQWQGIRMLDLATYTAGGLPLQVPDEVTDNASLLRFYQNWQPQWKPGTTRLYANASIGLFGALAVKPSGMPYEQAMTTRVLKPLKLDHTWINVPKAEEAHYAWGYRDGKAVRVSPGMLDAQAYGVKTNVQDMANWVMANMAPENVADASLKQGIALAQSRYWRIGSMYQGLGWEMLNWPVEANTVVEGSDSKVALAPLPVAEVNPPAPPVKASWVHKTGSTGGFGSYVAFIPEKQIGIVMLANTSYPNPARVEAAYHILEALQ

[18] = tested on: MC4100/AmpC-E. coli (OmpC-); experiment: Antibacterial activity, wider range of bacteria; format: cell-based; settings: Table 6
Method: as §4, §5

[19] = tested on: MC4100/AmpC-E. coli (OmpF-); experiment: Antibacterial activity, wider range of bacteria; format: cell-based; settings: Table 6
Method: as §4, §5

[20] = tested on: MC4100/AmpC-E. coli (OmpR-); experiment: Antibacterial activity, wider range of bacteria; format: cell-based; settings: Table 6
Method: as §4, §5

MC4100/AmpC-E. coli = experiment: Antibacterial activity, wider range of bacteria; format: cell-based; settings: Table 6
Method: as §4, §5

MC4 100/AmpC-Enter = experiment: Antibacterial activity, wider range of bacteria; format: cell-based, E. coli; settings: Table 6
Method: as §4, §5

[21] = tested on: MC4100/AmpC-Enter (OmpC-); experiment: Antibacterial activity, wider range of bacteria; format: cell-based, E. coli; settings: Table 6
Method: as §4, §5

[22] = tested on: MC4100/AmpC-Enter (OmpF-); experiment: Antibacterial activity, wider range of bacteria; format: cell-based, E. coli; settings: Table 6
Method: as §4, §5

[23] = tested on: MC4100/AmpC-Enter (OmpR-); experiment: Antibacterial activity, wider range of bacteria; format: cell-based, E. coli; settings: Table 6
Method: as §4, §5

[24] = Tables 2A/2B, pH 7.0, 25° C., 100 μM cephalothin, read-out: Ki E. coli AmpC
[25] = Tables 2A/2B, pH 7.0, 25° C., 100 μM FAP, N.I. = no inhibition observed at an inhibitor concentration of 100 μM, read-out: Ki E. coli TEM-1

Structure (SMILES)	MIC of inhibitor used alone without ceftazidime ([1]; AmpC-MHN) [µg/mL]	MIC of ceftazidime plus inhibitor ([2]; Table 3A, pBGS19) [µg/mL]	MIC of inhibitor used alone without ceftazidime ([2]; pBGS19) [µg/mL]	MIC of ceftazidime plus inhibitor ([3]; Table 3A)	MIC of inhibitor used alone without ceftazidime [3] [µg/mL]	MIC of ceftazidime plus inhibitor ([4]; Table 3A, Ent. Der.)	MIC of inhibitor used alone without ceftazidime ([4]; Ent. Der.) [µg/mL]	MIC, agent alone (CAZ alone / BZB only) [5]	MIC, agent alone (CAZ alone / BZB only) [6]	MIC, agent alone (CAZ alone / BZB only) [7]	MIC, agent alone (CAZ alone / BZB only) [8]	Ki [11, 24] [µM]	MIC of amoxicillin plus inhibitor [13] [µg/mL]	MIC of amoxicillin plus inhibitor [14] [µg/mL]	MIC of amoxicillin plus inhibitor [15] [µg/mL]	MIC of amoxicillin plus inhibitor [16] [µg/mL]	MIC of ceftazidime plus inhibitor ([1]; Table 3A, AmpC-MHN)	MIC of amoxicillin plus inhibitor [1] [µg/mL]	MIC of inhibitor used alone without amoxicillin [2] [µg/mL]	MIC of amoxicillin plus inhibitor [4] [µg/mL]	further results
OB(O)c1cc2ccccc2s1 [BZBTH2B, benzo[b]thiophene-2-boronic acid]	512	<0.25	512	128/32	512	32/8	512	128	128	128	512										MIC, agent alone (CAZ alone / BZB only) [9]: 512; MIC, agent alone (CAZ alone / BZB only) [10]: 512
OB(O)c1cc2ccccc2c2ccccc12 [9PHNB, 9-Phenanthreneboronic acid]	256	<0.25	128	256/64	128	512/128	>512					12.6	64	512	512	512	8/2	256	256	512	dissociation constant relative to MAPB (AmpC) ([11]; compared with MAPB): two to three-fold worse (higher); Ki [12, 25]: 31 µM; MIC of inhibitor used alone without amoxicillin [13]: 256 µg/mL; MIC of inhibitor used alone without amoxicillin [14]: 256 µg/mL; MIC of inhibitor used alone without amoxicillin [15]: 256 µg/mL; MIC of inhibitor used alone without amoxicillin [16]: 256 µg/mL; MIC of inhibitor used alone without amoxicillin [1]: 256 µg/mL; MIC of inhibitor used alone without amoxicillin [4]: 256 µg/mL
CN(C)c1cccc2c(S(=O)(=O)Nc3cccc(B(O)O)c3)cccc12 [NSULFB, m-(dansylamidophenyl)-boronic acid, reference compound]																					Ki ([11]; Ki E. coli AmpC): 1.6 µM; Ki [12]: 88 µM; inhibitor of Enterobacter cloacae P99 β-lactamase (in words) [17]: submicromolar
CC(C)(O/N=C(\C(=O)N[C@@H]1C(=O)N2C(C(=O)[O-])=C(C[n+]3ccccc3)CS[C@H]12)c1csc(N)n1)C(=O)O [CAZ, ceftazidime, reference compound]								16	16	16	8										MIC ([1]; Enterobacter cloacae, Table 3A, AmpC-MHN, CAZ alone, read-out: MIC of ceftazidime (CAZ)): 32 µg/mL; MIC ([2]; Escherichia coli, Table 3A, pBGS19, CAZ alone, read-out: MIC of ceftazidime (CAZ)): < 0.5 µg/mL; MIC ([3]; Escherichia coli, Table 3A, CAZ alone, read-out: MIC of ceftazidime (CAZ)): 256 µg/mL; MIC ([4]; Enterobacter cloacae, Table 3A, Ent. Der., CAZ alone, read-out: MIC of ceftazidime (CAZ)): 512 µg/mL; MIC, agent alone (CAZ alone / BZB only) [18]: 16; MIC, agent alone (CAZ alone / BZB only) [19]: 32; MIC, agent alone (CAZ alone / BZB only) [20]: 8; MIC, agent alone (CAZ alone / BZB only) (MC4100/AmpC-E. coli): 8; MIC, agent alone (CAZ alone / BZB only) (MC4 100/AmpC-Enter): 32; MIC, agent alone (CAZ alone / BZB only) [21]: 16; MIC, agent alone (CAZ alone / BZB only) [22]: 32; MIC, agent alone (CAZ alone / BZB only) [23]: 32; MIC, agent alone (CAZ alone / BZB only) [9]: 32; MIC, agent alone (CAZ alone / BZB only) [10]: 64
OB(O)c1ccc(-c2ccc(B(O)O)cc2)cc1 [BIPD, 4,4′-biphenyldiboronic acid]	>256	<0.12	>256	256/64	>256	128/32	>256					0.6	128	128	256	256	8/2	128	256	256	Ki ([11]; Example 1, read-out: Ki for AmpC): 0.18 ± 0.02 µM; Ki [12]: > 100 µM; MIC of inhibitor used alone without amoxicillin [13]: 256 µg/mL; MIC of inhibitor used alone without amoxicillin [14]: 128 µg/mL; MIC of inhibitor used alone without amoxicillin [15]: 256 µg/mL; MIC of inhibitor used alone without amoxicillin [16]: 256 µg/mL; MIC of inhibitor used alone without amoxicillin [1]: 256 µg/mL; MIC of inhibitor used alone without amoxicillin [4]: 256 µg/mL
C1COB([C@@H]2CCOC2)OCCN1 [DETHFB, diethanolamine-(3R)-(+)-tetrahydrofurnylboronate]		0.5	>512	256/64		32/8						1.1	64	128	512	512	4/1	32	256	256	Ki [12, 25]: 27 µM
